According to patent US20210008175A1, “BACTERIOPHAGE LYSIN AND ANTIBIOTIC COMBINATIONS AGAINST GRAM POSITIVE BACTERIA” (priority 2012, published 2021):
≈ marks a conversion by molar mass, not a printed value. Where two headings read alike, the source gives them in different places. Marks after values point to notes of the source that are not given here.

How the values were obtained:
Staphylococcus aureus = test: MIC, broth microdilution (CLSI M07-A9); assay type: cell-based
[1] = tested on: Staphylococcus aureus (MRSA and MSSA strains); test: Time kill assay, single agents at 1×MIC (CLSI); assay type: cell-based; conditions: for kill within 6 hours: 1×MIC
[2] = tested on: Staphylococcus aureus (MRSA and MSSA strains); test: Synergy time-kill assay (6 hours, combination compared to most active single agent); assay type: cell-based; conditions: ½ MIC PlySs2 or ¼ MIC vancomycin alone, up to 6 hours
S. aureus [3] = test: Cell envelope binding of BODIPY-fluorescein-labeled antibiotics; assay type: cell-based
Procedure: As a complement to the synergy studies, daptomycin and vancomycin cell envelope-binding was examined using BODIPY-fluorescein-labeled antibiotics in the presence and absence of sub-MIC levels of CF-301. […] Similarly, cell wall-labeling with vancomycin occurs within 5 minutes in the presence of CF-301 (⅛^th MIC) versus 30 minutes without CF-301 (FIG. 20B). For both antibiotics, the labeling was first observed at bacterial division planes.

S. aureus [4] = test: Murine bacteremia model, survival; assay type: in vivo, BALB/c mice; conditions: high challenge (10^9 CFU MRSA MW2), dosing at 2 hours; vancomycin 110 mg/kg twice daily, PlySs2 5.25 mg/kg (FIG. 27E)
[5] = tested on: MRSA Staphylococcus aureus strain (MW2); test: microbe, parasite or virus in culture; assay type: cell-based; conditions: for MIC: Staphylococcus aureus, MRSA, 600 h
[6] = DRSA (n = 8), with reducing agent

Structure (SMILES): Cc1onc(-c2ccccc2)c1C(=O)N[C@@H]1C(=O)N2[C@@H]1SC(C)(C)[C@@H]2C(=O)O [Oxacillin, oxacillin]
- MIC50/90 (Staphylococcus aureus; MRSA (n = 45)): >4*
- MIC50/90 [uM] (Staphylococcus aureus; MRSA (n = 45)): >10.0 µM
- kill within 6 hours [1]: 2 log10
- relative effectiveness among antibiotic agents ([1]; MSSA strains): least effective

Structure (SMILES): CN[C@H](CC(C)C)C(=O)N[C@H]1C(=O)N[C@@H](CC(N)=O)C(=O)N[C@H]2C(=O)N[C@H]3C(=O)N[C@H](C(=O)N[C@H](C(=O)O)c4cc(O)cc(O)c4-c4cc3ccc4O)[C@H](O)c3ccc(c(Cl)c3)Oc3cc2cc(c3O[C@@H]2O[C@H](CO)[C@@H](O)[C@H](O)[C@H]2O[C@H]2C[C@](C)(N)[C@H](O)[C@H](C)O2)Oc2ccc(cc2Cl)[C@H]1O [Vancomycin, vancomycin]
- MIC90 (Staphylococcus aureus; [6]): 1
- MIC90 [uM] (Staphylococcus aureus; [6]): 0.7 µM (≈ 1.01 µg/mL)
- MIC90 (Staphylococcus aureus; LRSA (n = 5), with reducing agent): 1
- MIC90 (Staphylococcus aureus; MRSA (n = 45), with reducing agent): 1
- MIC90 (Staphylococcus aureus; MSSA (n-28), with reducing agent): 1
- MIC90 (Staphylococcus aureus; Staphylococcus aureus): 0.7 µM (≈ 1.01 µg/mL)
- MIC90 (Staphylococcus aureus; Staphylococcus aureus, MRSA): 0.7 µM (≈ 1.01 µg/mL)
- MIC90 (Staphylococcus aureus; Staphylococcus aureus, MSSA): 0.7 µM (≈ 1.01 µg/mL)
- MIC90 (Staphylococcus aureus; Staphylococcus aureus, VISA): 2.7 µM (≈ 3.91 µg/mL)
- MIC90 (Staphylococcus aureus; Staphylococcus aureus, VRSA): > 10.6 µM
- MIC90 (Staphylococcus aureus; VISA (n = 10), with reducing agent): 4
- MIC90 (Staphylococcus aureus; VRSA (n = 14), with reducing agent): >16
- kill within 6 hours [1]: 2 log10
- effectiveness alone at sub-MIC doses [2]: ineffective or poorly effective
- time to cell wall-labeling with vancomycin (S. aureus [3]; in the presence of CF-301 (⅛^th MIC)): ≤ 5 min
- time to cell wall-labeling with vancomycin (S. aureus [3]; without CF-301): 30 min
- 24 hour survival rate (S. aureus [4]): 20%
- 72 hour survival rate (S. aureus [4]): 3%
- MIC ([5]; read-out: vancomycin MIC, ending values, passaged with PlySs2 (8 ug/ml) plus vancomycin, 25 day): 4 µg/mL
- MIC ([5]; read-out: vancomycin MIC, ending values, three vancomycin-only cultures, 25-day study): 16 µg/mL (≈ 11 µM)
- antibiotic MIC, starting value ([5]; before serial passage): 1 µg/mL
- increase of vancomycin MIC ([5]; passaged with PlySs2 (8 ug/ml) plus vancomycin): 2 to 4 fold
- vancomycin MIC, ending values ([5]; passaged with PlySs2 (8 ug/ml) plus vancomycin, 25 day): 2 µg/mL
- increase of vancomycin MIC ([5]; vancomycin-only cultures, 25-day study): 16 fold
